Laboratory results as given in ChEMBL document CHEMBL5370522, “Anti-inflammatory efficacy and relevant SAR investigations of novel chiral pyrazolo isoquinoline derivatives: Design, synthesis, in-vitro, in-vivo, and computational studies targeting iNOS” (Eur J Med Chem, 2023).
pIC50: −log10 of the molar value. Active and inactive are the calls of the source. The rule behind the calls is not given here.

Legend:
RAW264.7 [1] = assay: Anti inflammatory activity in LPS-induced mouse RAW264.7 cells assessed as inhibition of NO production at 80 uM preincubated with LPS for 4 hrs followed by compound addition and measured after 18 hrs by griess reagent based assay; format: functional; parameters: scale not given: the % may be the effect or the level left
[2] = Cytotoxicity against mouse RAW264.7 cells assessed as cell survival rate at 100 uM incubated for 24 hrs by MTT assay; format: toxicity, cell-based; conditions: read-out: Activity
RAW264.7 [3] = assay: Anti inflammatory activity in LPS-induced mouse RAW264.7 cells assessed as inhibition of NO production preincubated with LPS for 4 hrs followed by compound addition and measured after 18 hrs by griess reagent based assay; format: functional, cell-based; conditions: for Activity: dose 5-80 µM
RAW264.7 [4] = assay: Cytotoxicity against mouse RAW264.7 cells assessed as reduction in cell viability at 1 to 40 uM incubated for 24 hrs by MTT assay; format: toxicity, cell-based; conditions: raw264.7, 24 h, dose 1-40 µM
RAW264.7 [5] = assay: Anti inflammatory activity in LPS-induced mouse RAW264.7 cells assessed as reduction in iNOS expression at 5 to 80 uM measured for 24 hrs by Western blot analysis; format: functional, cell-based; conditions: dose 5-80 µM
Mus musculus = assay: Antiinflammatory activity against xylene-induced ear edema mouse model assessed as swelling rate at 10 mg/kg, iv measured after 30 mins; format: functional; conditions: 0.5 h

Row | SMILES | Activity (RAW264.7 [1]) [%] | viability at 24 h, 100 µM [2] [%] | pIC50 (RAW264.7 [3]) | Activity (RAW264.7 [3]) | Activity (RAW264.7 [4]) [%] | Activity (RAW264.7 [5]) | Activity (Mus musculus) [%]
1 | COc1ccc([C@H]2C(=O)N(S(=O)(=O)c3ccc(C)cc3)N3C=Cc4c(Br)cccc4[C@H]23)cc1 | 84.9 | 91.7 | 4.57 | Dose-Dependent Effect |  |  | 
2 | COc1ccc([C@H]2C(=O)N(S(=O)(=O)c3ccc(C)cc3)N3C=Cc4ccccc4[C@H]23)cc1 | 77.09 | 87 | 4.32 | Dose-Dependent Effect |  |  | 
3 | Cc1ccc(S(=O)(=O)N2C(=O)[C@H](c3ccc(Br)cc3)[C@H]3c4cccc(Br)c4C=CN32)cc1 | 91.61 | 92.9 | 4.68 | Dose-Dependent Effect | 90 | Active | 
4 | Cc1ccc(-c2cc(C(F)(F)F)nn2-c2ccc(S(N)(=O)=O)cc2)cc1 [CELECOXIB] |  |  |  |  |  |  | 70.05
5 | Cc1ccc(S(=O)(=O)N2C(=O)[C@H](c3cccc(F)c3)[C@H]3c4cccc(Br)c4C=CN32)cc1 |  |  | 4.47 | Dose-Dependent Effect |  |  | 
6 | Cc1ccc(S(=O)(=O)N2C(=O)[C@H](c3ccccc3)[C@H]3c4cccc(Br)c4C=CN32)cc1 | 90.52 | 92.3 | 4.32 | Dose-Dependent Effect | 90 |  | 
7 | Cc1ccc(S(=O)(=O)N2C(=O)[C@H](c3ccccc3F)[C@H]3c4cccc(Br)c4C=CN32)cc1 | 92.84 | 87.7 |  | Dose-Dependent Effect | 90 |  | 
8 | Cc1ccc(S(=O)(=O)N2C(=O)[C@H](c3ccc(F)cc3)[C@H]3c4ccccc4C=CN32)cc1 | 73.46 | 91.7 |  | Dose-Dependent Effect |  |  | 64.4
9 | Cc1ccc(S(=O)(=O)N2C(=O)[C@H](c3cccc(Br)c3)[C@H]3c4cccc(Br)c4C=CN32)cc1 | 72.86 | 81.7 |  | Dose-Dependent Effect |  |  | 
